Literature values, collected in patent US20060078615A1, “Bilayer tablet of telmisartan and simvastatin” (Boehringer Ingelheim International GmbH, priority 2004, published 2006).

Details: physiological pH range of the gastrointestinal tract, pH 1 to 7; free acid form

solubility in aqueous systems: very poor solubility
Structure (SMILES): CCCc1nc2c(C)cc(-c3nc4ccccc4n3C)cc2n1Cc1ccc(-c2ccccc2C(=O)O)cc1 [Telmisartan, 4′-[2-n-propyl-4-methyl-6-(1-methylbenzimidazol-2-yl)benzimidazol-1-ylmethyl]biphenyl-2-carboxylic acid]
